Tested on: 857933-349-R-J2-PDC complex spheroid viability
Test: Anticancer human tumor 857933-349-R-J2-PDC patient-derived colon adenocarcinoma cell line growth inhibition [POLQ]
Settings: for IC50: curve of first compound; for viability, T/C: stronger effect = lower value
In short: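 Three-cell-type spheroids modelling solid tumor plus stroma served as the readout system; POL inhibitors were tested individually and in combination, concentration ranges set by clinical Cmax where known.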

[1] = second compound 0.0316 µM, first compound 0.0316 µM
[2] = second compound 0.0316 µM, first compound 0.1 µM
[3] = second compound 0.0316 µM, first compound 0.316 µM
[4] = second compound 0.0316 µM, first compound 1 µM
[5] = second compound 0.0316 µM, first compound 3.16 µM
[6] = second compound 0.0316 µM, first compound 10 µM
[7] = second compound 0.1 µM, first compound 0.0316 µM
[8] = second compound 0.1 µM, first compound 0.1 µM
[9] = second compound 0.1 µM, first compound 0.316 µM
[10] = second compound 0.1 µM, first compound 1 µM
[11] = second compound 0.1 µM, first compound 3.16 µM
[12] = second compound 0.1 µM, first compound 10 µM
[13] = second compound 0.316 µM, first compound 0.0316 µM
[14] = second compound 0.316 µM, first compound 0.1 µM
[15] = second compound 0.316 µM, first compound 0.316 µM
[16] = second compound 0.316 µM, first compound 1 µM
[17] = second compound 0.316 µM, first compound 3.16 µM
[18] = second compound 0.316 µM, first compound 10 µM
[19] = second compound 1 µM, first compound 0.0316 µM
[20] = second compound 1 µM, first compound 0.1 µM
[21] = second compound 1 µM, first compound 0.316 µM
[22] = second compound 1 µM, first compound 1 µM
[23] = second compound 1 µM, first compound 3.16 µM
[24] = second compound 1 µM, first compound 10 µM
[25] = second compound 3.16 µM, first compound 0.0316 µM
[26] = second compound 3.16 µM, first compound 0.1 µM
[27] = second compound 3.16 µM, first compound 0.316 µM
[28] = second compound 3.16 µM, first compound 1 µM
[29] = second compound 3.16 µM, first compound 3.16 µM
[30] = second compound 3.16 µM, first compound 10 µM
[31] = second compound 10 µM, first compound 0.0316 µM
[32] = second compound 10 µM, first compound 0.1 µM
[33] = second compound 10 µM, first compound 0.316 µM
[34] = second compound 10 µM, first compound 1 µM
[35] = second compound 10 µM, first compound 3.16 µM
[36] = second compound 10 µM, first compound 10 µM
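Further: spheroids exposed to compounds for seven days before readout.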

CCc1cc2c(N3CCc4c(cc(Cn5ccnc5)cc4-c4cn(C)nc4C(F)(F)F)C3=O)cc(C)nc2c(OC)n1 + COC1C(OC(N)=O)C(O)C(Oc2ccc3c(O)c(NC(=O)c4ccc(O)c(CC=C(C)C)c4)c(=O)oc3c2C)OC1(C)C showed an IC50 (second compound 0.0316 µM) of over 10 µM, an IC50 (second compound 0.1 µM) of over 10 µM and an IC50 (second compound 0.316 µM) of over 10 µM. For the same compound, the IC50 (second compound 1 µM) was over 10 µM, the IC50 (second compound 3.16 µM) was over 10 µM and the IC50 (second compound 10 µM) was over 10 µM. For the same compound, the viability, T/C [1] was 116%, the viability, T/C [2] was 80.3% and the viability, T/C [3] was 72.3%. The viability, T/C [4] was 61.8%, the viability, T/C [5] was 68.5% and the viability, T/C [6] was 56.2%. For the same compound, the viability, T/C [7] was 97.5%, the viability, T/C [8] was 77.6% and the viability, T/C [9] was 95.5%. It also gave a viability, T/C [10] of 58.6%, a viability, T/C [11] of 68.2% and a viability, T/C [12] of 52.9%. For the same compound, the viability, T/C [13] was 117%, the viability, T/C [14] was 88.3% and the viability, T/C [15] was 75.3%. It also gave a viability, T/C [16] of 61.7%, a viability, T/C [17] of 82.9% and a viability, T/C [18] of 67.5%. For the same compound, the viability, T/C [19] was 102%, the viability, T/C [20] was 95.3% and the viability, T/C [21] was 78.8%. It also gave a viability, T/C [22] of 60.2%, a viability, T/C [23] of 52.8% and a viability, T/C [24] of 57.7%. The viability, T/C [25] was 77.7%, the viability, T/C [26] was 76.1% and the viability, T/C [27] was 89.7%. It also gave a viability, T/C [28] of 80.1%, a viability, T/C [29] of 57.5% and a viability, T/C [30] of 68.3%. For the same compound, the viability, T/C [31] was 71.3%, the viability, T/C [32] was 86.3% and the viability, T/C [33] was 72.7%. The viability, T/C [34] was 71.3%, the viability, T/C [35] was 91.8% and the viability, T/C [36] was 58%.
CCc1cc2c(N3CCc4c(cc(Cn5ccnc5)cc4-c4cn(C)nc4C(F)(F)F)C3=O)ccnc2c(OC)n1 + COC1C(OC(N)=O)C(O)C(Oc2ccc3c(O)c(NC(=O)c4ccc(O)c(CC=C(C)C)c4)c(=O)oc3c2C)OC1(C)C gave an IC50 (second compound 0.0316 µM) of over 10 µM, an IC50 (second compound 0.1 µM) of 7.52 µM and an IC50 (second compound 0.316 µM) of over 10 µM. The IC50 (second compound 1 µM) was over 10 µM, the IC50 (second compound 3.16 µM) was over 10 µM and the IC50 (second compound 10 µM) was over 10 µM. It also gave a viability, T/C [1] of 88.9%, a viability, T/C [2] of 93.4% and a viability, T/C [3] of 106%. For the same compound, the viability, T/C [4] was 75.6%, the viability, T/C [5] was 66% and the viability, T/C [6] was 51.8%. It also gave a viability, T/C [7] of 103%, a viability, T/C [8] of 93.1% and a viability, T/C [9] of 80.2%. It also gave a viability, T/C [10] of 84.2%, a viability, T/C [11] of 61% and a viability, T/C [12] of 44.6%. The viability, T/C [13] was 90.4%, the viability, T/C [14] was 104% and the viability, T/C [15] was 73.4%. It also gave a viability, T/C [16] of 71.5%, a viability, T/C [17] of 65.4% and a viability, T/C [18] of 58.4%. It also gave a viability, T/C [19] of 90%, a viability, T/C [20] of 79% and a viability, T/C [21] of 74.9%. The viability, T/C [22] was 69.8%, the viability, T/C [23] was 61.3% and the viability, T/C [24] was 59.5%. The viability, T/C [25] was 96.3%, the viability, T/C [26] was 98.2% and the viability, T/C [27] was 82.7%. It also gave a viability, T/C [28] of 73.6%, a viability, T/C [29] of 75.3% and a viability, T/C [30] of 58.2%. It also gave a viability, T/C [31] of 99.6%, a viability, T/C [32] of 94.5% and a viability, T/C [33] of 75.6%. It also gave a viability, T/C [34] of 92.3%, a viability, T/C [35] of 59.7% and a viability, T/C [36] of 62.8%.
In the case of COc1cc2cc(C(=O)CCC(=O)O)sc2cc1OC + COC1C(OC(N)=O)C(O)C(Oc2ccc3c(O)c(NC(=O)c4ccc(O)c(CC=C(C)C)c4)c(=O)oc3c2C)OC1(C)C, the IC50 (second compound 0.0316 µM) is reported as over 10 µM, the IC50 (second compound 0.1 µM) is reported as over 10 µM and the IC50 (second compound 0.316 µM) is reported as over 10 µM. The IC50 (second compound 1 µM) was over 10 µM, the IC50 (second compound 3.16 µM) was over 10 µM and the IC50 (second compound 10 µM) was over 10 µM. The viability, T/C [1] was 82%, the viability, T/C [2] was 98.3% and the viability, T/C [3] was 79.9%. It also gave a viability, T/C [4] of 79%, a viability, T/C [5] of 106% and a viability, T/C [6] of 93.8%. For the same compound, the viability, T/C [7] was 91.4%, the viability, T/C [8] was 95.5% and the viability, T/C [9] was 98.1%. It also gave a viability, T/C [10] of 79.2%, a viability, T/C [11] of 92.5% and a viability, T/C [12] of 111%. It also gave a viability, T/C [13] of 104%, a viability, T/C [14] of 102% and a viability, T/C [15] of 84%. For the same compound, the viability, T/C [16] was 97.2%, the viability, T/C [17] was 84.4% and the viability, T/C [18] was 79.7%. The viability, T/C [19] was 110%, the viability, T/C [20] was 112% and the viability, T/C [21] was 103%. For the same compound, the viability, T/C [22] was 94.2%, the viability, T/C [23] was 110% and the viability, T/C [24] was 122%. For the same compound, the viability, T/C [25] was 90.6%, the viability, T/C [26] was 91.1% and the viability, T/C [27] was 86.6%. For the same compound, the viability, T/C [28] was 77.4%, the viability, T/C [29] was 84.1% and the viability, T/C [30] was 90%. For the same compound, the viability, T/C [31] was 76.4%, the viability, T/C [32] was 98.1% and the viability, T/C [33] was 108%. The viability, T/C [34] was 116%, the viability, T/C [35] was 112% and the viability, T/C [36] was 91.9%.
For O=C(Nc1ccc(O)c(NS(=O)(=O)c2ccc(F)cc2)c1)c1ccc(-c2ccccc2)cc1 + COC1C(OC(N)=O)C(O)C(Oc2ccc3c(O)c(NC(=O)c4ccc(O)c(CC=C(C)C)c4)c(=O)oc3c2C)OC1(C)C, the IC50 (second compound 0.0316 µM) was over 10 µM, the IC50 (second compound 0.1 µM) was over 10 µM and the IC50 (second compound 0.316 µM) was over 10 µM. For the same compound, the IC50 (second compound 1 µM) was over 10 µM, the IC50 (second compound 3.16 µM) was over 10 µM and the IC50 (second compound 10 µM) was over 10 µM. The viability, T/C [1] was 70.1%, the viability, T/C [2] was 105% and the viability, T/C [3] was 92.3%. The viability, T/C [4] was 89.2%, the viability, T/C [5] was 80.7% and the viability, T/C [6] was 78.6%. The viability, T/C [7] was 116%, the viability, T/C [8] was 95.9% and the viability, T/C [9] was 94.1%. It also gave a viability, T/C [10] of 92.3%, a viability, T/C [11] of 114% and a viability, T/C [12] of 101%. For the same compound, the viability, T/C [13] was 96%, the viability, T/C [14] was 85.5% and the viability, T/C [15] was 65.9%. The viability, T/C [16] was 65.5%, the viability, T/C [17] was 113% and the viability, T/C [18] was 84.1%. It also gave a viability, T/C [19] of 79.5%, a viability, T/C [20] of 91.1% and a viability, T/C [21] of 81.1%. It also gave a viability, T/C [22] of 72.9%, a viability, T/C [23] of 109% and a viability, T/C [24] of 80.7%. It also gave a viability, T/C [25] of 101%, a viability, T/C [26] of 86.9% and a viability, T/C [27] of 113%. It also gave a viability, T/C [28] of 99.2%, a viability, T/C [29] of 85.3% and a viability, T/C [30] of 61.5%. For the same compound, the viability, T/C [31] was 76.2%, the viability, T/C [32] was 88.7% and the viability, T/C [33] was 99.8%. For the same compound, the viability, T/C [34] was 82.8%, the viability, T/C [35] was 77.9% and the viability, T/C [36] was 68.8%.
